Counter-ions that a name gives are not always drawn.
How the values were obtained:
[1] = biological target: T1, PIM1 serine/threonine kinase (Homo sapiens, UniProt P11309); assay: PIM1 serine/threonine kinase inhibitory effect; format: biochemical; settings: PIM1 serine/threonine kinase activity; ATP 40 μM; 30° C., 30 minutes
T1 construct: purchased Carna Bioscience, Inc
Procedure, shortened: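 Recombinant PIM1 (0.15 μg/ml final) with 0.5 μM biotinylated substrate and 40 μM ATP in pH 7.0 HEPES/MgCl2 buffer, 30 min at 30° C. Compound range was 0.01–10000 nM final, n=2. HTRF detection with streptavidin-XL665 and anti-phospho antibody-cryptate, 1 h; IC50 from non-linear regression of the 665/620 ratio.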

[2] = biological target: PIM1 transgenic cells (Ba/F3) (Homo sapiens, UniProt P11309); assay: Proliferation inhibitory effect on PIM1 transgenic cells; format: cell-based, mouse; settings: proliferation inhibition, 72 hours, Cell Counting Kit-8, read-out: PIM1 IC50
Procedure, shortened: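 Mouse Ba/F3 pro-B cells were retrovirally transduced with human PIM1 so that their proliferation depends on PIM1. Cells were treated with compound at 1–10000 nM final for 72 h, then read by CCK-8 (OD450−OD650). Inhibition was set against DMSO (0%) and no-cell blank (100%), and IC50 was obtained by two-parameter logistic regression.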

T1 sequence (P11309 whole entry): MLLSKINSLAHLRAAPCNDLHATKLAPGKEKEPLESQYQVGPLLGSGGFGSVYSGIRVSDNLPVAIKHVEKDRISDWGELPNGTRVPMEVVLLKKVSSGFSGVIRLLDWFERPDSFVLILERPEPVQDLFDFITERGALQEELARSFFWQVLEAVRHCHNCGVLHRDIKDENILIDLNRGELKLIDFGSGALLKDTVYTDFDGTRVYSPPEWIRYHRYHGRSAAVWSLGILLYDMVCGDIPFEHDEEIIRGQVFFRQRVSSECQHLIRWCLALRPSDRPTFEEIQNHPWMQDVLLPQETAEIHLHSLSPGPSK
Chain of PIM1 transgenic cells (Ba/F3) (P11309 whole entry, stated change not applied): as the sequence (P11309 whole entry) above

| IC50 [1] [µM] | GI50 [2] [µM] | Structure (SMILES) |
| --- | --- | --- |
| 0.0016 | 0.018 | C[C@H](Nc1cc(-c2n[nH]c(=O)o2)cc(Cl)c1Cl)[C@H]1CC[C@H](N)CC1 [Example 174, 5-[3-({(1S)-1-[(1r,4S)-4-aminocyclohexyl]ethyl}amino)-4,5-dichlorophenyl]-1,3,4-oxadiazol-2(3H)-one hydrochloride] |
| 0.017 | 0.32 | CC(C)Oc1c(F)cc(-c2n[nH]c(=O)o2)cc1N[C@@H](C)[C@H]1CC[C@H](N)CC1 [Example 175, 5-{3-({(1S)-1-[(1r,4S)-4-aminocyclohexyl]ethyl}amino)-5-fluoro-4-[(propan-2-yl)oxy]phenyl}-1,3,4-oxadiazol-2(3H)-one dihydrochloride] |
| 0.0057 | 0.19 | C[C@@H]1CN([C@@H](C)C2CCNCC2)c2cc(-c3n[nH]c(=O)o3)cc(F)c2O1 [Example 250, 5-{(2R)-8-fluoro-2-methyl-4-[(1S)-1-(piperidin-4-yl)ethyl]-3,4-dihydro-2H-1,4-benzoxazin-6-yl}-1,3,4-oxadiazol-2(3H)-one] |
| 0.018 | 7.6 | O=c1[nH]nc(-c2ccc(Cl)c(NC[C@@H]3CCNC3)c2)o1 [Example 49, 5-[4-chloro-3-({[(3R)-pyrrolidin-3-yl]methyl}amino)phenyl]-1,3,4-oxadiazol-2(3H)-one hydrochloride] |
| 0.006 | 0.37 | CC1(CNc2cc(-c3n[nH]c(=O)o3)ccc2C(F)(F)F)CCNCC1 [Example 57, 5-[3-{[(4-methylpiperidin-4-yl)methyl]amino}-4-(trifluoromethyl)phenyl]-1,3,4-oxadiazol-2(3H)-one hydrochloride] |
| 0.013 | 1.2 | O=c1[nH]nc(-c2ccc(C(F)(F)F)c(NC[C@@H]3CCCNC3)c2)o1 [Example 54, 5-[3-({[(3R)-piperidin-3-yl]methyl}amino)-4-(trifluoromethyl)phenyl]-1,3,4-oxadiazol-2(3H)-one hydrochloride] |
| 0.0066 | 0.21 | CC1CN(C(C)C2CCC(N)CC2)c2cc(-c3n[nH]c(=O)o3)cc(F)c2O1 [Example 252, 5-[(2S)-4-{(1S)-1-[(1r,4S)-4-aminocyclohexyl]ethyl}-8-fluoro-2-methyl-3,4-dihydro-2H-1,4-benzoxazin-6-yl]-1,3,4-oxadiazol-2(3H)-one hydrochloride] |
| 0.0072 | 0.046 | C[C@@H]1CNCC[C@@H]1[C@H](C)Nc1cc(-c2n[nH]c(=O)o2)ccc1Cl [Example 221, 5-[4-chloro-3-({(1S)-1-[(3S,4S)-3-methylpiperidin-4-yl]ethyl}amino)phenyl]-1,3,4-oxadiazol-2(3H)-one] |
| 0.0026 | 0.12 | N[C@H]1CC[C@H](CSc2cc(-c3n[nH]c(=O)o3)ccc2C(F)(F)F)CC1 [Example 234, 5-[3-({[(1r,4r)-4-aminocyclohexyl]methyl}sulfanyl)-4-(trifluoromethyl)phenyl]-1,3,4-oxadiazol-2(3H)-one] |
| 0.015 | 1.6 | O=c1[nH]nc(-c2ccc(C(F)(F)F)c(NC[C@H]3CCCNC3)c2)o1 [Example 53, 5-[3-({[(3S)-piperidin-3-yl]methyl}amino)-4-(trifluoromethyl)phenyl]-1,3,4-oxadiazol-2(3H)-one hydrochloride] |
| 0.015 | 0.68 | C[C@@H](C1CCNCC1)N1CCCOc2c(F)cc(-c3n[nH]c(=O)o3)cc21 [Example 254, 5-{9-fluoro-5-[(1S)-1-(piperidin-4-yl)ethyl]-2,3,4,5-tetrahydro-1,5-benzoxazepin-7-yl}-1,3,4-oxadiazol-2(3H)-one hydrochloride] |
| 0.002 | 0.028 | C[C@H](Nc1cc(-c2n[nH]c(=O)o2)cc(Br)c1Cl)[C@H]1CC[C@H](N)CC1 [Example 171, 5-[3-({(1S)-1-[(1r,4S)-4-aminocyclohexyl]ethyl}amino)-5-bromo-4-chlorophenyl]-1,3,4-oxadiazol-2(3H)-one dihydrochloride] |
| 0.0084 | 0.14 | Cc1cc(Cl)c(N[C@@H](C)C2CCNCC2)cc1-c1n[nH]c(=O)o1 [Example 94, 5-(4-chloro-2-methyl-5-{[(1S)-1-(piperidin-4-yl)ethyl]amino}phenyl)-1,3,4-oxadiazol-2(3H)-one hydrochloride] |
| 0.0019 | 0.087 | N[C@H]1CC[C@H](COc2cc(-c3n[nH]c(=O)o3)ccc2C(F)(F)F)CC1 [Example 240, 5-[3-{[(1r,4r)-4-aminocyclohexyl]methoxy}-4-(trifluoromethyl)phenyl]-1,3,4-oxadiazol-2(3H)-one] |
| 0.012 | 1.3 | NCC(O)C1CCN(c2cc(-c3n[nH]c(=O)o3)ccc2C(F)(F)F)CC1 (stereo not shown) [Example 14, 5-{3-[4-(2-amino-1-hydroxyethyl)piperidin-1-yl]-4-(trifluoromethyl)phenyl}-1,3,4-oxadiazol-2(3H)-one hydrochloride] |
| 0.029 | 1 | N[C@H]1CO[C@H](C2CC2c2cc(-c3n[nH]c(=O)o3)ccc2C(F)(F)F)OC1 (stereo partly shown) [Example 161, 5-[3-{2-[(2r,5r)-5-amino-1,3-dioxan-2-yl]cyclopropyl}-4-(trifluoromethyl)phenyl]-1,3,4-oxadiazol-2(3H)-one hydrochloride] |
| 0.0053 | 0.09 | CC(Oc1cc(-c2n[nH]c(=O)o2)ccc1Br)[C@H]1CC[C@H](N)CC1 (stereo partly shown) [Example 237, 5-(3-{1-[(1r,4r)-4-aminocyclohexyl]ethoxy}-4-bromophenyl)-1,3,4-oxadiazol-2(3H)-one] |
| 0.0036 | 0.081 | O=c1[nH]nc(-c2ccc(C(F)(F)F)c(N[C@@H](C(F)F)C3CCNCC3)c2)o1 [Example 113, 5-[3-{[(1R)-2,2-difluoro-1-(piperidin-4-yl)ethyl]amino}-4-(trifluoromethyl)phenyl]-1,3,4-oxadiazol-2(3H)-one hydrochloride] |
| 0.0029 | 0.027 | C[C@@H]1CNCC[C@@H]1[C@H](C)Nc1cc(-c2n[nH]c(=O)o2)ccc1OC(F)(F)F [Example 218, 5-[3-({(1S)-1-[(3S,4S)-3-methylpiperidin-4-yl]ethyl}amino)-4-(trifluoromethoxy)phenyl]-1,3,4-oxadiazol-2(3H)-one] |
| 0.038 | 3.5 | N[C@H]1CO[C@H](CCc2cc(-c3n[nH]c(=O)o3)ccc2C(F)(F)F)OC1 [Example 28, 5-[3-{2-[(2r,5r)-5-amino-1,3-dioxan-2-yl]ethyl}-4-(trifluoromethyl)phenyl]-1,3,4-oxadiazol-2(3H)-one hydrochloride] |
| 0.01 | 0.11 | C[C@H](Nc1cc(-c2n[nH]c(=O)o2)ccc1Cl)[C@H]1C[C@@H](N)C1(C)C [Example 168, 5-[3-({(1S)-1-[(1S,3R)-3-amino-2,2-dimethylcyclobutyl]ethyl}amino)-4-chlorophenyl]-1,3,4-oxadiazol-2(3H)-one] |
| 0.011 | 7.9 | NCCCCCNc1cc(-c2n[nH]c(=O)o2)ccc1C(F)(F)F [Example 3, 5-{3-[(5-aminopentyl)amino]-4-(trifluoromethyl)phenyl}-1,3,4-oxadiazol-2(3H)-one hydrochloride] |
| 0.011 | 0.16 | C[C@H](Nc1cc(-c2n[nH]c(=O)o2)ccc1C(F)(F)F)[C@@H]1CCC[C@H](N)C1 [Example 191, 5-[3-({(1S)-1-[(1R,3S)-3-aminocyclohexyl]ethyl}amino)-4-(trifluoromethyl)phenyl]-1,3,4-oxadiazol-2(3H)-one hydrochloride] |
| 0.0029 | 0.056 | C[C@H](Nc1cc(-c2n[nH]c(=O)o2)ccc1C(F)(F)F)[C@@H]1CC[C@@H](N)CO1 [Example 188, 5-[3-({(S)-1-[(2S,5R)-5-aminotetrahydro-2H-pyran-2-yl]ethyl}amino)-4-(trifluoromethyl)phenyl]-1,3,4-oxadiazol-2(3H)-one] |
| 0.0035 | 0.1 | CC[C@H](Nc1cc(-c2n[nH]c(=O)o2)cc(F)c1C(F)(F)F)[C@H]1CC[C@H](N)CC1 [Example 198, 5-[3-({(1S)-1-[(1r,4S)-4-aminocyclohexyl]propyl}amino)-5-fluoro-4-(trifluoromethyl)phenyl]-1,3,4-oxadiazol-2(3H)-one] |
| 0.027 | 2.2 | NCCc1ccc(-c2cc(-c3n[nH]c(=O)o3)ccc2C(F)(F)F)cc1 [Example 22, 5-[4′-(2-aminoethyl)-6-(trifluoromethyl)[1,1′-biphenyl]-3-yl]-1,3,4-oxadiazol-2(3H)-one hydrochloride] |
| 0.015 | 1.9 | NCCCCNc1cc(-c2n[nH]c(=O)o2)ccc1C(F)(F)F [Example 1, 5-{3-[(4-aminobutyl)amino]-4-(trifluoromethyl)phenyl}-1,3,4-oxadiazol-2(3H)-one hydrochloride] |
| 0.014 | 0.16 | C[C@H](Nc1cc(-c2n[nH]c(=O)o2)ccc1C(F)(F)F)[C@H]1[C@@H]2CC[C@H]1CNC2 [Example 156, 5-[3-({(1S)-1-[(1R,5S,8s)-3-azabicyclo[3.2.1]octan-8-yl]ethyl}amino)-4-(trifluoromethyl)phenyl]-1,3,4-oxadiazol-2(3H)-one hydrochloride] |
| 0.0019 | 4.9 | CO/N=C1\CCN([C@@H](C)[C@H]2CCNC[C@H]2C)c2cc(-c3n[nH]c(=O)o3)cc(F)c21 [Example 246, 5-[(4E)-5-fluoro-4-(methoxyimino)-1-{(1S)-1-[(3S,4S)-3-methylpiperidin-4-yl]ethyl}-1,2,3,4-tetrahydroquinolin-7-yl]-1,3,4-oxadiazol-2(3H)-one hydrochloride] |
